Assay results reported in patent US7741283B2, “Compositions and methods for inhibiting cell proliferation” (St. Louis University, priority 2003, dated 2010).
Entries after “also recorded” stand apart in the source; their conditions may differ.

Tests used:
[1] = system: TβR-V purified from bovine liver plasma membranes; experiment: 125I-IGFBP-3 / 125I-TGF-β1 affinity labeling of purified TβR-V; assay type: binding; settings: DSS, β1^25(41-65) 20 μM, RAP 10-40 μg/ml, α2M* 100 nM, lactoferrin 100 nM
acidic pH binding sites [2] = molecular target: acidic pH binding sites (Neogale vison, UniProt A0A8C7BSJ2); experiment: Specific binding of 125I-ligands to Mv1Lu cells at acidic pH; design: species or system mink; settings: Mv1Lu cells; for pH of optimal/maximal binding: EGTA/BAPTA- or GST-RAP-sensitive binding, 0° C.
Sequence of acidic pH binding sites (Neogale vison, UniProt A0A8C7BSJ2) (A0A8C7BSJ2 entry or part of it): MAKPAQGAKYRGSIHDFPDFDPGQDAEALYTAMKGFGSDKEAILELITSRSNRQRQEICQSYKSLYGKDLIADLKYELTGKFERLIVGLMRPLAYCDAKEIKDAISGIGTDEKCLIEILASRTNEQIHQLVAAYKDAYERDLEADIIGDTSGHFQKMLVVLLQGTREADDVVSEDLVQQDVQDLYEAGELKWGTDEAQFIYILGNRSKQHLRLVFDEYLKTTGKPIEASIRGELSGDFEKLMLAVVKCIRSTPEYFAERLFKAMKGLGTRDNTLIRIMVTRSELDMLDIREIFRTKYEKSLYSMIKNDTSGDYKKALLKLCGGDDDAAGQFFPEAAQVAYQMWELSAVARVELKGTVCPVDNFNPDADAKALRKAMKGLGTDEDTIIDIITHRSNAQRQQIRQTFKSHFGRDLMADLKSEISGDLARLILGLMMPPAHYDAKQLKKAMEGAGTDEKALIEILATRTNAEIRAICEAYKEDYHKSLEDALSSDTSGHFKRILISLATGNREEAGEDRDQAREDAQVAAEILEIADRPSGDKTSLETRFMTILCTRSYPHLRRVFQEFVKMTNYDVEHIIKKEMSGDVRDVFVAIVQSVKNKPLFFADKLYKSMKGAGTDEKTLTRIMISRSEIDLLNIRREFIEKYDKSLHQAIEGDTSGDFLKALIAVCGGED

acidic pH binding sites [3] = molecular target: T1, acidic pH binding sites (Mus musculus, UniProt P14824); experiment: Specific binding of 125I-ligands to MEF cells at acidic pH; settings: MEF cells
T1 sequence (P14824 2-673): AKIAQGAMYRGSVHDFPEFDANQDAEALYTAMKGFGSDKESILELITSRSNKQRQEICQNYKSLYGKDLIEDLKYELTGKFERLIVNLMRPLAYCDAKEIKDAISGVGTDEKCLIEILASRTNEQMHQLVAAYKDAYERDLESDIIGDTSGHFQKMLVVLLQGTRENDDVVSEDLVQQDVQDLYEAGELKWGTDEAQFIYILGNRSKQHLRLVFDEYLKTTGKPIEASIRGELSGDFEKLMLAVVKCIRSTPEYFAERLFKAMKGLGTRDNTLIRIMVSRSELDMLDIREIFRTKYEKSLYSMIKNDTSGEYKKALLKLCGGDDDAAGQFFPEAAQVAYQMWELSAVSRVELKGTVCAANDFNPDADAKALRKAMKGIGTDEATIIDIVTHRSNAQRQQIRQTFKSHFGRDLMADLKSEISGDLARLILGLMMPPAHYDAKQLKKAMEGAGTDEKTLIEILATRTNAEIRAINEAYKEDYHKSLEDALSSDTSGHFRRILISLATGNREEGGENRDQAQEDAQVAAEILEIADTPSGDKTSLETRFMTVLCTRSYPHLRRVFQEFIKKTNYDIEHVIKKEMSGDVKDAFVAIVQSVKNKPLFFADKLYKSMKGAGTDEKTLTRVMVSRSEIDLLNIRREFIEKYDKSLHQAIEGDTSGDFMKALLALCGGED

MEF cells [4] = experiment: Internalization and degradation of cell surface-bound 125I-ligand, MEF cells; assay type: cell-based, mouse; settings: for Cell surface-bound ligand internalized and degraded: MEF
PEA-13 cells [5] = experiment: Internalization and degradation of cell surface-bound 125I-α2M*, PEA-13 cells; assay type: cell-based, mouse; settings: PEA-13, pH 6.0, 1 hr at 37° C.
LRP-1/TβR-V = LRP-1/TβR-V (Homo sapiens, UniProt Q07954); settings: pH 7.4; read-out: Kd for (high affinity) binding to LRP-1/TβR-V; cited from earlier work
Sequence of LRP-1/TβR-V (Q07954 20-4544): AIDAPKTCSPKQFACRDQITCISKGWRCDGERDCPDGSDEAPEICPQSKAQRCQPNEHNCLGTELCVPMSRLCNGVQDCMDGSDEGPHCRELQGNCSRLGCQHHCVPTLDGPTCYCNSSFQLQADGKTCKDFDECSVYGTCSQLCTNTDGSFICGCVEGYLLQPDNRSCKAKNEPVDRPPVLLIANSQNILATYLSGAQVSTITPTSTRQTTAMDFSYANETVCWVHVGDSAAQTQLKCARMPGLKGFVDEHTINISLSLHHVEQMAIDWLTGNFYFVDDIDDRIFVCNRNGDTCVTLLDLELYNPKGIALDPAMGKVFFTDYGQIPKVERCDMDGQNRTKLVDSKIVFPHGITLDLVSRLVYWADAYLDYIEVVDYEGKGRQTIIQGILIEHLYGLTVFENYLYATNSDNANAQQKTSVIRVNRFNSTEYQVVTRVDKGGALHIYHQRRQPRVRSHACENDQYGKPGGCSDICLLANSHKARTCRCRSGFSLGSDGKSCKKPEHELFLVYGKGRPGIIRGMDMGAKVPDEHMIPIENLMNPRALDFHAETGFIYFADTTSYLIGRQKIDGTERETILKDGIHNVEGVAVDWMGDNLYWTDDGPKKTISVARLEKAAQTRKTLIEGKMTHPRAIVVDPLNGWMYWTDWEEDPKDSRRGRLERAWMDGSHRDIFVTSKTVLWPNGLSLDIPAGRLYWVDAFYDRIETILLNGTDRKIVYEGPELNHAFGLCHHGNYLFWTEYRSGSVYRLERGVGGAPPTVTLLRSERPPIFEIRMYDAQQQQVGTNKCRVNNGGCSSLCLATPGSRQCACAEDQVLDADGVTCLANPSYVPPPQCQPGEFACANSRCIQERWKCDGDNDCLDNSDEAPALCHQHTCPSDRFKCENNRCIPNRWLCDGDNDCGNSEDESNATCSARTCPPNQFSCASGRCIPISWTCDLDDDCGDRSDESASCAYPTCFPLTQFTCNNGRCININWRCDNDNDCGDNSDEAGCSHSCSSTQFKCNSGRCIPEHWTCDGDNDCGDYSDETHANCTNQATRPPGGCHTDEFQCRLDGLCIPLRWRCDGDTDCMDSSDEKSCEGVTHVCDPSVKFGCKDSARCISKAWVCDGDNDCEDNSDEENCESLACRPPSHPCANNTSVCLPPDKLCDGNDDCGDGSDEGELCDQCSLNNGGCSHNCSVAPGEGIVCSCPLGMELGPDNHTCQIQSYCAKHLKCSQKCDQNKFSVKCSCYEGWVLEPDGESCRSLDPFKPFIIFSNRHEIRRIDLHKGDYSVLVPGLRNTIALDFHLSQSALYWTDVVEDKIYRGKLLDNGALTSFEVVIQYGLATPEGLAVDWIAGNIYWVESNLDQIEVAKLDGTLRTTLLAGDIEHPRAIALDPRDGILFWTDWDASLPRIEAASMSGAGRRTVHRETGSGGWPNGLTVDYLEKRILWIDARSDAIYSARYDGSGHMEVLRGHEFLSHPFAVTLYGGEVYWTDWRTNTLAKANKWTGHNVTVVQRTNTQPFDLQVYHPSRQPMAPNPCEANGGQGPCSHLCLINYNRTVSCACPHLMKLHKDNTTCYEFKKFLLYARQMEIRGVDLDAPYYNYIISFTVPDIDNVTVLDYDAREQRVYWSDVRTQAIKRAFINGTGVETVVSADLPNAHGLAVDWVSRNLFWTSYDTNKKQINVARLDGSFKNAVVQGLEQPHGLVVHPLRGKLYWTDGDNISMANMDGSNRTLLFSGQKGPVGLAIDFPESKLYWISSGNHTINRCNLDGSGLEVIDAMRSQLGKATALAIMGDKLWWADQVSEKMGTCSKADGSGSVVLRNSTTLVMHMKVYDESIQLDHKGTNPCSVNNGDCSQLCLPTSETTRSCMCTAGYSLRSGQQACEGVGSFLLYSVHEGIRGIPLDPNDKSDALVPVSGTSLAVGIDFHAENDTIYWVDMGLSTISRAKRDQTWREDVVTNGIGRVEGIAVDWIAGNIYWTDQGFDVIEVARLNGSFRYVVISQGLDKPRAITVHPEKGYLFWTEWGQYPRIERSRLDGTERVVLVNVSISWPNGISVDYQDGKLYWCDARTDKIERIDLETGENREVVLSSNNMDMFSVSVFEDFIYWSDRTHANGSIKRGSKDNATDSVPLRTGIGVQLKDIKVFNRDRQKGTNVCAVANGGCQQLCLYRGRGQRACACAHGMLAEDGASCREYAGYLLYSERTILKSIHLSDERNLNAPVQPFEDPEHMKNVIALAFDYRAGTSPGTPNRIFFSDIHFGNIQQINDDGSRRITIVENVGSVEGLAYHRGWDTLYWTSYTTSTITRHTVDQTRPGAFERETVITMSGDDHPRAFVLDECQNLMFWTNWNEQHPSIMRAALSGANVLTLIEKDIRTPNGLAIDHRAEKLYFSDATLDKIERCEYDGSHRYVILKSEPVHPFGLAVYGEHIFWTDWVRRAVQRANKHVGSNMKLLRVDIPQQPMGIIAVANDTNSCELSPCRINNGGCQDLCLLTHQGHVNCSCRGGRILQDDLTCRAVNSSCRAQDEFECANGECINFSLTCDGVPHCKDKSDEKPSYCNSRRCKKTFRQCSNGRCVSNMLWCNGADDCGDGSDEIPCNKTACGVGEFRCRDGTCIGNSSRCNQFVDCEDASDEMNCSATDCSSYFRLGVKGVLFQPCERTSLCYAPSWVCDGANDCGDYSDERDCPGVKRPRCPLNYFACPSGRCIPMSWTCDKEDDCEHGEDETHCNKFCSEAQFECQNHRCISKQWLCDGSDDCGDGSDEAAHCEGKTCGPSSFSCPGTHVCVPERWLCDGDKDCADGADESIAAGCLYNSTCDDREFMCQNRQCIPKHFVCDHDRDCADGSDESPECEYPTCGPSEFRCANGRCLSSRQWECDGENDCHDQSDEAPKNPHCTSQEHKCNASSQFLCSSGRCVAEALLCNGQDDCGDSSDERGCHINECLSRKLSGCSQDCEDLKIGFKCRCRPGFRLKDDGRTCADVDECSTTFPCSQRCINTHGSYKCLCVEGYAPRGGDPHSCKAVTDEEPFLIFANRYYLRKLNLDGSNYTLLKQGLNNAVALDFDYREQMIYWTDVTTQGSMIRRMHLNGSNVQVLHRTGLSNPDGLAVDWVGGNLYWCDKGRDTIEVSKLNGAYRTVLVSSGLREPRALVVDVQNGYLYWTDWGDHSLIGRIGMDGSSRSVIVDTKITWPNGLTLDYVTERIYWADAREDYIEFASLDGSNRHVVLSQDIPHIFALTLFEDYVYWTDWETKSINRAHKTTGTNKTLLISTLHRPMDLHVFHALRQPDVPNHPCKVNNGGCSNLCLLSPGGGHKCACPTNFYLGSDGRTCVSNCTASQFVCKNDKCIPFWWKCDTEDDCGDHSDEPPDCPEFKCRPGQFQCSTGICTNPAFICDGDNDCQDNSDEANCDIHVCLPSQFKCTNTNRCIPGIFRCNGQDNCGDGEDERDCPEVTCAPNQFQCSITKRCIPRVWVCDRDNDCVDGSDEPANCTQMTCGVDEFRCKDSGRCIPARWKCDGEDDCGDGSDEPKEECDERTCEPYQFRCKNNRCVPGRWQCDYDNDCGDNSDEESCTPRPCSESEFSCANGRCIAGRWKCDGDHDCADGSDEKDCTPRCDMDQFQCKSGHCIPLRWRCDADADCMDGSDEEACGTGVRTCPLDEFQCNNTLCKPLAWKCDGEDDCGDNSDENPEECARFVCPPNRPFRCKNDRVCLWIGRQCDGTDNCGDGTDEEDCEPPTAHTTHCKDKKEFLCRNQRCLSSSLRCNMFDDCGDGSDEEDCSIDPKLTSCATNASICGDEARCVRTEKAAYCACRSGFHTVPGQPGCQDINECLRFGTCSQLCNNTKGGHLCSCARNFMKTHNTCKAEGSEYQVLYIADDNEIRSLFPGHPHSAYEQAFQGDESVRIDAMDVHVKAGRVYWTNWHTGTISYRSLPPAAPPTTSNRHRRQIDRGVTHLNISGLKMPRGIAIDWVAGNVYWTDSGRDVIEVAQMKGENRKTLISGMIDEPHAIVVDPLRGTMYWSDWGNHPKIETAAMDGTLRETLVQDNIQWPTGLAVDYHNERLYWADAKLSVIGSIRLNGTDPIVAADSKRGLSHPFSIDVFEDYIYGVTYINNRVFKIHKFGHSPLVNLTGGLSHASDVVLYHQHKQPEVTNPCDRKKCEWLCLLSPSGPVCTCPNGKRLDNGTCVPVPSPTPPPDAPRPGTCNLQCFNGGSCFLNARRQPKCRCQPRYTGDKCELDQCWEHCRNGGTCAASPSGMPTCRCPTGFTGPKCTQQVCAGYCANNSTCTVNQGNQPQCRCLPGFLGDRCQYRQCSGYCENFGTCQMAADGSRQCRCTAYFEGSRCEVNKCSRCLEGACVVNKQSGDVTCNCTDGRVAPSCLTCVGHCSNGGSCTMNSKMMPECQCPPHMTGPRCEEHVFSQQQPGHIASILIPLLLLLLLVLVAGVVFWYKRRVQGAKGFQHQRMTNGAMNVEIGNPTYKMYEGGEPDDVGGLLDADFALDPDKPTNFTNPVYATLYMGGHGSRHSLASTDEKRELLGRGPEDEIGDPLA

acidic pH binding sites [6] = molecular target: T1, acidic pH binding sites; experiment: Specific binding of 125I-ligands to PEA-13 cells at acidic pH; design: endogenous in cells; host or cells: PEA-13 (LRP-1-deficient mouse embryonic fibroblasts); settings: PEA-13 cells
LRP-1 = molecular target: T2, LRP-1 (Mus musculus, UniProt Q91ZX7); experiment: 125I-α2M* binding to MEF cells at pH 7.4; settings: pH 7.4; read-out: IC50, inhibition of ^125I-α2M* binding to LRP-1
T2 construct: endogenous in cells; host or cells: MEF (mouse embryonic fibroblasts)

Mv1Lu cells [7] = experiment: Internalization and degradation of cell surface-bound 125I-TGF-β1 or 125I-α2M*, Mv1Lu cells; assay type: cell-based, mink; settings: 10 μM, pH 7.4, 1 hr at 37° C.
Protocol: After 1 hr at 37° C., the medium was collected and precipitated with 10% trichloroacetic acid (TCA). The TCA-soluble radioactive material in the medium represented the cellular degradation products of 125I-TGF-β1 or 125I-α2M*. The cells were then treated with trypsin (5 mg/ml), maintained for 20 min at 0° C. and centrifuged. The radioactivity in the supernate and cell pellets represented cell surface-bound and internalized 125I-TGF-β1 or 125I-α2M*, respectively. The experiments were performed in quadruplicate.
After 2.5 hr, cells were washed, then warmed to 37° C.

[8] = system: cell surface α2M* receptors; settings: 30 μM, reversible; cited from earlier work
Mv1Lu cells [9] = experiment: [methyl-3H] thymidine incorporation (DNA synthesis), Mv1Lu cells; assay type: cell-based, mink; settings: Mv1Lu
PEA-C11 cells [10] = experiment: [methyl-3H] thymidine incorporation, PEA-C11 cells; assay type: cell-based, mink; settings: TGF-β1 20 pM
Mv1Lu cells [11] = experiment: Cell growth (cell number), Mv1Lu cells; assay type: cell-based, mink; settings: TGF-β1 20 pM, 4-day
Protocol: (§1) FIG. 6 depicts the effects of IGFBP-3 and TGF-β1 on DNA synthesis (A), cell growth (B) and PAI-1 expression (C) in Mv1Lu and PEA-C11 cells. (A,B) Cells were incubated with various concentrations of IGFBP-3 (a) or TGF-β1 (b) as indicated. DNA synthesis and cell growth were determined by measuring the [methyl-^3H] thymidine incorporation into cellular DNA after 18 hr incubation (A) and by counting cell number after a 4-day incubation (B), respectively. The [methyl-^3H] thymidine incorporation in cells treated without IGFBP-3 and TGF-β1 (29,170±1,657 and 59,947±7,692 cpm/well for Mv1Lu and PEA-C11 cells, respectively) were taken as 0% inhibition. […] Each data point is the mean±S.D. of quadruplicate determinations. […] Data are representative of eight similar experiments. (C) Cells were incubated with various concentrations of TGF-β1 as indicated. After 2 hr at 37° C., the PAI-1 expression was determined by Northern blot analysis. The expression of glyceraldehyde-3-phosphate dehydrogenase (G3PDH) was used as control. The relative levels of the transcripts were quantified by a Phospholmager. Data are representative of four similar experiments.
(§2) Cells were plated at a density of 1-2×10^4 cells/dish in DMEM containing 1% fetal calf serum. The cell number was counted every day or after a 3-day incubation using a hematocytometer. The assays were performed in quadruplicate.

PEA-C11 cells [12] = experiment: Cell growth (cell number), PEA-C11 cells; assay type: cell-based, mink; settings: TGF-β1 20 pM, PEA-C11, 4-day
Protocol: as §1, §2

MEF cells [13] = experiment: [methyl-3H] thymidine incorporation, MEF cells; assay type: cell-based, mouse; settings: TGF-β1 20 pM
Protocol: (§3) FIG. 7 depicts the effect of TGF-β1 on DNA synthesis (A), cell growth (B) and PAI-1 expression (C) in MEF and PEA-13 cells. (A) Cells were treated with various concentrations of TGF-β1 as indicated. DNA synthesis was determined by measuring [methyl-^3H] thymidine incorporation into cellular DNA. The [methyl-^3H] thymidine incorporation in cells treated without TGF-β1 (100,861±3,720 and 103,262±6,722 cpm/well for MEF and PEA-13 cells, respectively) was taken as 0% inhibition. The negative values of inhibition indicate mitogenic activity. […] Each datapoint is the mean±S.D. of quadruplicate determinations. […] Data are representative of six similar experiments. (B) Cells were treated with various concentrations of TGF-β1 as indicated. The cell number was counted after a 4 day incubation. […] The negative values of the inhibition indicate the growth stimulatory activity. Each datapoint is the mean±S.D. of quadruplicate determinations. […] Data are representative of four similar experiments. (C) Cells were treated with various concentrations of TGF-β1 as indicated. The PAI-1 expression in these cells was determined by Northern blot analysis. The expression of G3PDH was used as control. The relative levels of the transcripts were quantified by a PhosphoImager. Data are representative of four similar experiments. […]

PEA-13 cells [14] = experiment: [methyl-3H] thymidine incorporation, PEA-13 cells; assay type: cell-based, mouse; settings: TGF-β1 20 pM
Protocol: as §3

MEF cells [15] = experiment: Cell growth (cell number), MEF cells; assay type: cell-based, mouse; settings: TGF-β1 20 pM
Protocol: as §3, with “The expression of G3PDH was used as control.” left out, “PhosphoImager.” for “PhosphoImager. Data are representative of four similar experiments.”
(§4) Cells were plated at a density of 1-2×10^4 cells/dish in DMEM containing 1% fetal calf serum. The cell number was counted every day or after a 3-day incubation using a hematocytometer. […]

PEA-13 cells [16] = experiment: Cell growth (cell number), PEA-13 cells; assay type: cell-based, mouse; settings: TGF-β1 20 pM
Protocol: as §3, with “The expression of G3PDH was used as control.” left out, “PhosphoImager.” for “PhosphoImager. Data are representative of four similar experiments.”
as §4

H1299/LRP cells [17] = experiment: [methyl-3H] thymidine incorporation, H1299/LRP cells; assay type: cell-based, human; settings: various concentrations
H1299/vector cells [18] = experiment: [methyl-3H] thymidine incorporation, H1299/vector cells; assay type: cell-based, human; settings: various concentrations
H1299/LRP cells [19] = experiment: Cell growth (cell number), H1299/LRP cells; assay type: cell-based, human; settings: TGF-β1 20 pM or IGFBP-3 1 μg/ml, 3-day
H1299/vector cells [20] = experiment: Cell growth (cell number), H1299/vector cells; assay type: cell-based, human; settings: TGF-β1 20 pM or IGFBP-3 1 μg/ml, 3-day
IRS-2 [21] = experiment: 32P metabolic labeling and immunoprecipitation of IRS-2, Mv1Lu cells; assay type: cell-based, mink; settings: Mv1Lu; IGFBPs 1 μg/ml; TGF-β1 20 pM
IRS-2 [22] = experiment: 32P metabolic labeling and immunoprecipitation of IRS-2, DR26 cells; assay type: cell-based, mink
[23] = system: 32D cells expressing vector only; experiment: [methyl-3H] thymidine incorporation, 32D cells transfected with vector only; assay type: cell-based, murine
32D/IRS-1 cells = experiment: [methyl-3H] thymidine incorporation, 32D/IRS-1 cells; assay type: cell-based, murine; settings: 32D cells expressing IRS-1
32D/IR/IRS-2 cells = experiment: [methyl-3H] thymidine incorporation, 32D/IR/IRS-2 cells; assay type: cell-based, murine; settings: 32D cells expressing IRS-2 and insulin receptor

With α2M*: α2M activated by methylamine the “^125I-TGF-β1 binding to purified TβR-V” value ([1]; 0.1 nM 125I-TGF-β1, […] 0° C.) was “blocked”, the “^125I-IGFBP-3 binding to purified TβR-V” value ([1]; 10 nM 125I-IGFBP-3, […] 0° C.) was “did not inhibit” and the “Number of binding sites (Scatchard plot)” value (acidic pH binding sites [2]; pH 5) was ~1×10^6 sites/cell. The “Saturating concentration of binding” value (acidic pH binding sites [2]; pH 5) was ~120 nM, the Kd (acidic pH binding sites [2]; pH 5, read-out: Apparent Kd (Scatchard plot)) was ~51 nM and the “pH of optimal/maximal binding” value (acidic pH binding sites [2]) was 5. For the same molecule, the “pH of maximal binding” value (acidic pH binding sites [3]) was 5, the “Cell surface-bound ligand internalized and degraded” value (MEF cells [4]; pH 6.0, 1 hr at 37° C.) was ~70% and the “Cell surface-bound ligand internalized and degraded” value (MEF cells [4]; pH 7.4, 1 hr) was “more than 90%”. For the same molecule, the “Cell surface-bound ligand internalized and degraded” value (PEA-13 cells [5]) was ~70%, the Kd (LRP-1/TβR-V) was ~0.075 nM and the “pH of maximal binding” value (acidic pH binding sites [6]) was 5. The IC50 (acidic pH binding sites [6]; acidic pH, read-out: IC50, inhibition of ^125I-α2M* binding) was ~120 nM.

For `CN1CCN(CCCN2c3ccccc3Sc3ccc(C(F)(F)F)cc32)CC1` [trifluoperazine, reference compound], the “Inhibition of ^125I-α2M* binding to cells” value (acidic pH binding sites [3]; pH 5.5, verapamil and W-5 at 100 μM) was “most potent inhibitors”, the IC50 (LRP-1) was 25000 to 30000 nM and the “Degradation of cell surface-bound ^125I-TGF-β1 or ^125I-α2M*” value (Mv1Lu cells [7]) was “completely blocked; also recorded: completely inhibits”. The “Degradation of cell surface-bound ^125I-α2M* or ^125I-TGF-β1” value (MEF cells [4]; MEF cells, pH 7.4) was “trifluoperazine-inhibitable degradation” and the “Depletion of cell surface α2M* receptors” value [8] was ~50%.

With “TGF-β1: human transforming growth factor-β1” the “Inhibition of DNA synthesis” value (Mv1Lu cells [9]; TGF-β1 0.5 pM) was ~75%, the “Inhibition of DNA synthesis” value (Mv1Lu cells [9]; TGF-β1 20 pM) was 90-100% and the “Inhibition of DNA synthesis” value (PEA-C11 cells [10]) was ~70%. For the same molecule, the “Inhibition of cell growth” value (Mv1Lu cells [11]) was 90-100%, the “Inhibition of cell growth” value (PEA-C11 cells [12]) was ~70% and the “Inhibition of DNA synthesis” value (MEF cells [13]) was 30-40%. For the same molecule, the “Stimulation of DNA synthesis” value (PEA-13 cells [14]) was ≤ 20%, the “Inhibition of cell growth” value (MEF cells [15]) was 30-40% and the “Stimulation of cell growth” value (PEA-13 cells [16]) was ≤ 20%. For the same molecule, the “Effect on DNA synthesis” value (H1299/LRP cells [17]) was “inhibited”, the “Effect on DNA synthesis” value (H1299/vector cells [18]) was “acted as mitogens or growth stimulators” and the “Effect on cell growth” value (H1299/LRP cells [19]) was “inhibited”. For the same molecule, the “Effect on cell growth” value (H1299/vector cells [20]) was “acted as mitogens or growth stimulators”, the “Induction of specific dephosphorylation (mobility change) of 32P-labeled IRS-2” value (IRS-2 [21]) was “inability” and the “32P-labeled phosphorylation of IRS-2” value (IRS-2 [22]; TGF-β1 alone) was “capable of stimulating”. For the same molecule, the “Dephosphorylation of IRS-2” value (IRS-2 [22]; TGF-β1 up to 400 pM) was “did not induce dephosphorylation”, the “Inhibition of DNA synthesis” value [23] was “minimally or not at all” and the “Growth inhibitory response (DNA synthesis)” value (32D/IRS-1 cells) was “potent growth inhibitory response”. For the same molecule, the “Growth inhibitory response (DNA synthesis)” value (32D/IR/IRS-2 cells) was “potent growth inhibitory response”, the “pH of optimal/maximal binding” value (acidic pH binding sites [2]) was 5 and the “pH of maximal binding” value (acidic pH binding sites [3]) was 5. For the same molecule, the Kd (LRP-1/TβR-V) was 0.05 to 0.4 nM and the “pH of maximal binding” value (acidic pH binding sites [6]) was 5.
